In brackets after ≈: the same amount, converted by molar mass. Like-named read-outs stand apart in the source and are kept apart here. Blank lines part the entries; values can stand above or below the compound they belong to.
Experiments:
SRC (GST-HIS-tag) = SRC (GST-HIS-tag) (Homo sapiens (Human), UniProt P12931); assay type: biochemical
MC38 cells = test: cells; conditions: Mus musculus, MC-38, 72 h, read-out: MC38 IC50 (nM at 100 ng/mL TNF)
SIK3 = SIK3 (Homo sapiens (Human), UniProt Q9Y2K2)
[1] = mouse, microsomes
[2] = human, microsomes
physchem = assay type: physicochemical; conditions: kinetic from dmso stock
M579-A2-luc = assay type: cell-based

Compound: Cc1nc(NCCO)cc(Nc2ncc(C(=O)Nc3c(Cl)ccnc3C)s2)n1 [Compound C11, N-(4-chloro-2-methylpyridin-3-yl)-2-((6-((2-hydroxyethyl)amino)-2-methylpyrimidin-4-yl)amino)thiazole-5-carboxamide]
IC50 (SRC (GST-HIS-tag)): < 1.5 nM

Compound: Cc1nc(Nc2ncc(C(=O)Nc3cccnc3C)s2)cc(N2CCN(CCO)CC2)n1 [Compound C6, 2-((6-(4-(2-hydroxyethyl)piperazin-1-yl)-2-methylpyrimidin-4-yl)amino)-N-(2-methylpyridin-3-yl)thiazole-5-carboxamide]
IC50 (SRC (GST-HIS-tag)): < 1.5 nM

Compound: Cc1nc(Nc2ncc(C(=O)Nc3c(C)ccnc3C)s2)cc(N2CCN(CCO)CC2)n1 [Compound C1, N-(2,4-dimethylpyridin-3-yl)-2-((6-(4-(2-hydroxyethyl)piperazin-1-yl)-2-methylpyrimidin-4-yl)amino)thiazole-5-carboxamide]
IC50 (SRC (GST-HIS-tag)): < 1.5 nM

Compound: CC(=O)N1CCN(c2cc(Nc3ncc(C(=O)Nc4c(C)csc4Cl)s3)nc(C)n2)CC1 [Compound D8, 2-((6-(4-acetylpiperazin-1-yl)-2-methylpyrimidin-4-yl)amino)-N-(2-chloro-4-methylthiophen-3-yl)thiazole-5-carboxamide]
IC50 (MC38 cells): > 200 nM
IC50 (SIK3): ~150 nM

Intrinsic clearance (L/min/mg) [1]: < 14 µL/min/mg
% Remaining at 40 min (%) [1]: 86%
Percentage unbound (%) (murine plasma-proteins): 62%
Intrinsic clearance (L/min/mg) [2]: < 14 µL/min/mg
% Remaining at 40 min (%) [2]: 81%
solubility kinetic (physchem): 128 to 195 µM (≈ 60.4 to 92 µg/mL)
Percentage unbound (%) (human plasma-proteins): 5%
Compound: Cc1nc(Nc2ncc(C(=O)Nc3c(C)nn(C)c3C)s2)cc(N2CCN(CCO)CC2)n1 [Compound C8, 2-((6-(4-(2-hydroxyethyl)piperazin-1-yl)-2-methylpyrimidin-4-yl)amino)-N-(1,3,5-trimethyl-1H-pyrazol-4-yl)thiazole-5-carboxamide]

Compound: COc1c(F)cccc1NC(=O)c1cnc(Nc2cc(N3CCN(CCO)CC3)nc(C)n2)s1 [Compound B4, N-(3-fluoro-2-methoxyphenyl)-2-((6-(4-(2-hydroxyethyl)piperazin-l-yl)-2-methylpyrimidin-4-yl)amino)thiazole-5-carboxamide]
cytotoxicity in the presence of TNF (10 ng/mL) compared to inhibitor alone (M579-A2-luc): fails to exhibit cytotoxicity

Compound: Cc1nc(Nc2ncc(C(=O)Nc3c(C)cncc3Cl)s2)cc(N2CCN(CCO)CC2)n1 [Compound C4, N-(3-chloro-5-methylpyridin-4-yl)-2-((6-(4-(2-hydroxyethyl)piperazin-1-yl)-2-methylpyrimidin-4-yl)amino)thiazole-5-carboxamide]
Intrinsic clearance (L/min/mg) [1]: 38 µL/min/mg
% Remaining at 40 min (%) [1]: 45%
IC50 (SRC (GST-HIS-tag)): < 1.5 nM
Percentage unbound (%) (murine plasma-proteins): 14%
Intrinsic clearance (L/min/mg) [2]: 115 µL/min/mg
% Remaining at 40 min (%) [2]: 10%
solubility kinetic (physchem): 128 µM (≈ 62.6 µg/mL)
Percentage unbound (%) (human plasma-proteins): 2%

Compound: CCOc1cccc(Cl)c1NC(=O)c1cnc(Nc2cc(N3CCN(CCO)CC3)nc(C)n2)s1 [Compound B8, N-(2-chloro-6-ethoxyphenyl)-2-((6-(4-(2-hydroxyethyl)piperazin-l-yl)-2-methylpyrimidin-4-yl)amino)thiazole-5-carboxamide]
cytotoxicity in the presence of TNF (10 ng/mL) compared to inhibitor alone (M579-A2-luc): fails to exhibit cytotoxicity

Compound: Cc1nc(Nc2ncc(C(=O)Nc3c(Cl)cccc3Br)s2)cc(N2CCN(CCO)CC2)n1 [Compound B1, N-(2-bromo-6-chlorophenyl)-2-((6-(4-(2-hydroxyethyl)piperazin-l-yl)-2-methylpyrimidin-4-yl)amino)thiazole-5-carboxamide]
cytotoxicity in the presence of TNF (10 ng/mL) compared to inhibitor alone (M579-A2-luc): increased cytotoxicity

Compound: Cc1nc(Nc2ncc(C(=O)Nc3c(C)cncc3C)s2)cc(N2CCN(CCO)CC2)n1 [Compound C5, N-(3,5-dimethylpyridin-4-yl)-2-((6-(4-(2-hydroxyethyl)piperazin-1-yl)-2-methylpyrimidin-4-yl)amino)thiazole-5-carboxamide]
IC50 (SRC (GST-HIS-tag)): < 1.5 nM
